Experimental data from patent US10517867B2, “Posaconazole derivative, pharmaceutical composition and use thereof” (priority 2016, dated 2019).
Like-named read-outs stand apart in the source and are kept apart here.

Assays:
[1] = Solid stability test (stability chamber, HPLC total impurity); assay type: physicochemical
[2] = In vitro metabolic stability in human intestine S9; assay type: in vitro ADME; details: human, 37° C., 10 μM compound, 1 mg/mL S9, NADPH regeneration system, read-out: Human intestine S9 T1/2
Experimental: (§1) This example detects the metabolic stability of the compounds of the present disclosure in human (rat) plasma and intestinal S9 in vitro. In a human (rat) plasma reaction system, 990 μl of human (rat) plasma was taken and incubated at 37° C. for 5 minutes, and 10 μl of the compound mother liquor was used to initiate the reaction. In the human (rat) intestinal S9 stability experiment, in the order shown in Table 2 below, the samples were added and incubated in a 37° C. water bath to initiate the reaction, each sample performed in triplicates. Respectively, at 1 minute, 2 minutes, 5 minutes, 15 minutes, 30 minutes after the reaction began, 100 μL of each was taken and added to a centrifuge tube containing 400 μL of 0° C. precooled internal standard working solution. The reaction was terminated, vortexed and mixed for 1 minute, centrifuged at 10000×g for 10 minutes in a 4° C. precooled high-speed centrifuge, and the supernatant was detected with HPLC. The test results were used to calculate metabolic half-life using WinNonlin (version 6.2 Pharsight, Mountain View, Calif.) with a non-compartmental model.
(§2) Compound stock solution concentration: 1 mM
(§3) Reaction matrix: human (rat) plasma, intestinal S9 purchased from Research Institute for Liver Diseases (Shanghai) Co., Ltd.

[3] = In vitro metabolic stability in human plasma; assay type: in vitro ADME; details: human, plasma, 37° C., 10 μM compound, read-out: Human plasma T1/2
Experimental: as §1, §2, §3

[4] = In vitro metabolic stability in rat plasma; assay type: in vitro ADME; details: rat, plasma, 37° C., 10 μM compound, read-out: Rat plasma T1/2
Experimental: as §1, §2, §3

[5] = In vitro metabolic stability in rat intestine S9; assay type: in vitro ADME; details: rat, 37° C., 10 μM compound, 1 mg/mL S9, NADPH regeneration system, read-out: Rat intestine S9 T1/2
Experimental: as §1, §2, §3

[6] = Determination of solubility in deionized water (HPLC, external standard); details: for solubility at 30 min: 25 °C, water, thermodynamic from solid; for Solubility: 25±2° C., after 30 min
[7] = system: Candida albicans ATCC10231; assay: Systemic fungal infection in mice, intragastric administration; assay type: in vivo, ICR mice; details: Candida albicans, ATCC10231, po, 20 mg/kg intragastric once daily for 5 days
Experimental: ICR mice, weighing 18-22 g, male, provided by Hubei Experimental Animal Center.
Prior to the experiment, a small amount of Candida albicans was picked from an SDA medium kept at 4° C. with an inoculation loop and inoculated into 1 ml YPD culture medium, cultured at 30° C. with 200 rpm shaking and activated for 16 hours, so that the fungus was in the late stage of exponential growth. Counted with a hemocytometer and the fungal solution concentration was adjusted to 1×10^3 to 5×10^3 CFU/ml with RPMI1640 medium. Monoclonal Candida albicans on SDA plate was picked up, inoculated into 1 ml YPD (Yeast Extract Peptone Dextrose Medium, the same below) culture medium, cultured at 35° C., 200 rpm for 16 hours until late exponential growth phase. Candida albicans was inoculated into fresh medium for culturing for 6 hours at 1%, centrifuged at 1000×g for 5 minutes, washed with physiological saline three times until the supernatant was colorless, counted with a hemocytometer, and the cell concentration was adjusted to 5×10^6 cells/ml. A tail vein injection of 0.1 ml/10 g caused a systemic fungal infection in mice. […] A total of 7 days of observations were performed. All dead mice were burned with ethanol.

[8] = solid, packaged, 25° C.±2° C., relative humidity 60%±2%

Structure (SMILES)	Total impurity increment in 30 days [1, 8]	solubility at 30 min [6]	also measured
CC[C@@H](C(C)OC(=O)OC(C)OC(=O)CN(C)C)n1ncn(-c2ccc(N3CCN(c4ccc(OC[C@@H]5CO[C@@](Cn6cncn6)(c6ccc(F)cc6F)C5)cc4)CC3)cc2)c1=O (stereo partly shown) [Compound 0058]	0.47%		
CC[C@@H]([C@H](C)O)n1ncn(-c2ccc(N3CCN(c4ccc(OC[C@@H]5CO[C@@](Cn6c[n+](C(C)OC(=O)OCC[C@@H](N)C(=O)O)cn6)(c6ccc(F)cc6F)C5)cc4)CC3)cc2)c1=O.Cl.[Cl-] (stereo partly shown) [ST0018]			half-life at 10 µM ([2]; intestinal S9): 50.1 ± 5.98 min; half-life at 10 µM [3]: 18.6 ± 5.63 min; half-life at 10 µM [4]: 11.5 ± 1.23 min; half-life at 10 µM ([5]; intestinal S9, pH 7.4): 45.2 ± 6.95 min
CC[C@@H]([C@H](C)O)n1ncn(-c2ccc(N3CCN(c4ccc(OC[C@@H]5CO[C@@](Cn6c[n+](CC(=O)[O-])cn6)(c6ccc(F)cc6F)C5)cc4)CC3)cc2)c1=O.[Cl-].[Na+] [ST0021]	0.97%		
CC[C@@H]([C@H](C)O)n1ncn(-c2ccc(N3CCN(c4ccc(OC[C@@H]5CO[C@@](Cn6c[n+](C(C)OC(=O)NC7O[C@H](CO)[C@H](O)[C@H]7OC(=O)CNC)cn6)(c6ccc(F)cc6F)C5)cc4)CC3)cc2)c1=O (stereo partly shown) [ST0028]		35.7 mg/mL	Total impurity increment in 30 days [1]: 1.62%
CC[C@@H]([C@H](C)O)n1ncn(-c2ccc(N3CCN(c4ccc(OC[C@@H]5CO[C@@](Cn6c[n+](C(C)OC(=O)SCC(=O)[O-])cn6)(c6ccc(F)cc6F)C5)cc4)CC3)cc2)c1=O.[Cl-].[Na+] (stereo partly shown) [ST0034]	1.85%		
CC[C@@H]([C@H](C)O)n1ncn(-c2ccc(N3CCN(c4ccc(OC[C@@H]5CO[C@@](Cn6c[n+](C(C)OC(=O)OCCS)cn6)(c6ccc(F)cc6F)C5)cc4)CC3)cc2)c1=O (stereo partly shown) [ST0036]	0.87%		
CC[C@@H]([C@H](C)O)n1ncn(-c2ccc(N3CCN(c4ccc(OC[C@@H]5CO[C@@](Cn6c[n+](C(C)OC(=O)N(C)c7ncccc7COC(=O)[C@@H](N)CCCNC)cn6)(c6ccc(F)cc6F)C5)cc4)CC3)cc2)c1=O (stereo partly shown) [ST0038]		> 50 mg/mL	Total impurity increment in 30 days [1]: 1.06%
CC[C@@H]([C@H](C)O)n1ncn(-c2ccc(N3CCN(c4ccc(OC[C@@H]5CO[C@@](Cn6c[n+](C(C)OC(=O)N(C)c7ncccc7COC(=O)[C@@H](N)CCNC)cn6)(c6ccc(F)cc6F)C5)cc4)CC3)cc2)c1=O (stereo partly shown) [ST0040]	1.34%	> 50 mg/mL	
CC[C@@H]([C@H](C)O)n1ncn(-c2ccc(N3CCN(c4ccc(OC[C@@H]5CO[C@@](Cn6c[n+](C(C)OC(=O)OCCOP(=O)(O)O)cn6)(c6ccc(F)cc6F)C5)cc4)CC3)cc2)c1=O (stereo partly shown) [ST0042]	1.05%	> 50 mg/mL	
CC[C@@H]([C@H](C)OC(=O)OC(C)OC(=O)CC(=O)[O-])n1ncn(-c2ccc(N3CCN(c4ccc(OC[C@@H]5CO[C@@](Cn6cncn6)(c6ccc(F)cc6F)C5)cc4)CC3)cc2)c1=O.[Na+] (stereo partly shown) [ST0048]	0.95%		
CC[C@@H]([C@H](C)OC(=O)OC(C)OC(=O)CNP(=O)([O-])[O-])n1ncn(-c2ccc(N3CCN(c4ccc(OC[C@@H]5CO[C@@](Cn6cncn6)(c6ccc(F)cc6F)C5)cc4)CC3)cc2)c1=O.[Na+].[Na+] (stereo partly shown) [ST0055]	0.85%		Solubility [6]: 35.4 mg/mL
CC[C@@H](C(C)OC(=O)OC(C)OC(=O)CNS(=O)(=O)[O-])n1ncn(-c2ccc(N3CCN(c4ccc(OC[C@@H]5CO[C@@](Cn6cncn6)(c6ccc(F)cc6F)C5)cc4)CC3)cc2)c1=O.[Na+] (stereo partly shown) [ST0057]	1.96%	> 50 mg/mL	
CC[C@@H]([C@H](C)OC(=O)OCCOCCOP(=O)([O-])[O-])n1ncn(-c2ccc(N3CCN(c4ccc(OC[C@@H]5CO[C@@](Cn6cncn6)(c6ccc(F)cc6F)C5)cc4)CC3)cc2)c1=O.[Na+].[Na+] [ST0060]	0.83%		Solubility [6]: >50 mg/mL
CC[C@@H](C(C)OC(=O)OC(C)OC(=O)CCCCCCCCCOP(=O)([O-])[O-])n1ncn(-c2ccc(N3CCN(c4ccc(OC[C@@H]5CO[C@@](Cn6cncn6)(c6ccc(F)cc6F)C5)cc4)CC3)cc2)c1=O.[Na+].[Na+] (stereo partly shown) [ST0072]			half-life at 10 µM ([2]; intestinal S9): 46.8 ± 12.8 min; half-life at 10 µM [3]: 18.3 ± 1.97 min; half-life at 10 µM [4]: 25.6 ± 13 min; half-life at 10 µM ([5]; intestinal S9, pH 7.4): 39.9 ± 10.8 min
CC[C@@H]([C@H](C)OC(=O)OC(C)OC(=O)Cc1ccc(OS(=O)(=O)[O-])cc1)n1ncn(-c2ccc(N3CCN(c4ccc(OC[C@@H]5CO[C@@](Cn6cncn6)(c6ccc(F)cc6F)C5)cc4)CC3)cc2)c1=O.[Na+] (stereo partly shown) [ST0080]			half-life at 10 µM [2]: 40.3 ± 12.7 min; half-life at 10 µM [3]: 12.8 ± 3.57 min; half-life at 10 µM [4]: 13.3 ± 4.78 min; half-life at 10 µM ([5]; pH 7.4): 45.4 ± 11.3 min; responders at 20 mg/kg ([7]; 24 h, day 1, read-out: survival rate of mice, day 1): 90%; responders at 20 mg/kg ([7]; 48 h, day 2, read-out: survival rate of mice, day 2): 90%; responders at 20 mg/kg ([7]; 72 h, day 3, read-out: survival rate of mice, day 3): 90%; responders at 20 mg/kg ([7]; 96 h, day 4, read-out: survival rate of mice, day 4): 80%; responders at 20 mg/kg ([7]; 120 h, day 5, read-out: survival rate of mice, day 5): 70%; responders at 20 mg/kg ([7]; 144 h, day 6, read-out: survival rate of mice, day 6): 70%; responders at 20 mg/kg ([7]; 168 h, day 7, read-out: survival rate of mice, day 7): 60%
CC[C@@H]([C@H](C)OC(=O)OC(C)OC(=O)C(O)COP(=O)([O-])[O-])n1ncn(-c2ccc(N3CCN(c4ccc(OC[C@@H]5CO[C@@](Cn6cncn6)(c6ccc(F)cc6F)C5)cc4)CC3)cc2)c1=O.[Na+].[Na+] (stereo partly shown) [ST0089]		25.2 mg/mL	
CC[C@@H]([C@H](C)OS(=O)(=O)[O-])n1ncn(-c2ccc(N3CCN(c4ccc(OC[C@@H]5CO[C@@](Cn6cncn6)(c6ccc(F)cc6F)C5)cc4)CC3)cc2)c1=O.[Na+] [ST0095]		> 50 mg/mL	
CC[C@@H]([C@H](C)O)n1ncn(-c2ccc(N3CCN(c4ccc(OC[C@@H]5CO[C@@](Cn6c[n+](C(C)OC(=O)N(C)c7ncccc7COC(=O)CN)cn6)(c6ccc(F)cc6F)C5)cc4)CC3)cc2)c1=O (stereo partly shown) [ST0101]	0.47%		
CC[C@@H]([C@H](C)O)n1ncn(-c2ccc(N3CCN(c4ccc(OC[C@@H]5CO[C@@](Cn6c[n+](C(C)OC(=O)N(C)c7ncccc7COC(=O)[C@@H](N)CCC(N)=O)cn6)(c6ccc(F)cc6F)C5)cc4)CC3)cc2)c1=O (stereo partly shown) [ST0102]	0.36%		
CC[C@@H]([C@H](C)O)n1ncn(-c2ccc(N3CCN(c4ccc(OC[C@@H]5CO[C@@](Cn6c[n+](C(C)OC(=O)N(C)c7ncccc7COC(=O)[C@@H](N)CC(N)=O)cn6)(c6ccc(F)cc6F)C5)cc4)CC3)cc2)c1=O (stereo partly shown) [ST0103]	0.29%		
CC[C@@H]([C@H](C)O)n1ncn(-c2ccc(N3CCN(c4ccc(OC[C@@H]5CO[C@@](Cn6c[n+](C(C)OC(=O)N(C)c7ncccc7COC(=O)[C@@H](N)CCCCN)cn6)(c6ccc(F)cc6F)C5)cc4)CC3)cc2)c1=O (stereo partly shown) [ST0104]	0.27%		
CC[C@@H]([C@H](C)O)n1ncn(-c2ccc(N3CCN(c4ccc(OC[C@@H]5CO[C@@](Cn6c[n+](C(C)OC(=O)N(C)c7ncccc7COC(=O)[C@@H](N)CO)cn6)(c6ccc(F)cc6F)C5)cc4)CC3)cc2)c1=O (stereo partly shown) [ST0105]	0.34%		
CC[C@@H]([C@H](C)O)n1ncn(-c2ccc(N3CCN(c4ccc(OC[C@@H]5CO[C@@](Cn6c[n+](C(C)OC(=O)N(C)c7ncccc7COC(=O)[C@@H](N)[C@@H](C)O)cn6)(c6ccc(F)cc6F)C5)cc4)CC3)cc2)c1=O (stereo partly shown) [ST0106]	0.32%		
